Each block holds one molecule with its values, some of them ahead of it.
How the values were obtained:
hTau-441 fibrils = hTau-441 fibrils (Homo sapiens, UniProt P10636); experiment: Inhibition of [3H]astemizole binding to synthetic hTau-441 fibrils
[1] = imidazolyl sulfoxide moiety; cited from earlier work
[2] = First-in-man PET brain uptake in healthy volunteers; conditions: for peak uptake, whole brain: initial perfusion phase, 1 min p.i., i.v. bolus, healthy volunteers
monoamino oxidase A = conditions: cited from earlier work
monoamino oxidase B = conditions: no reference given; cited from earlier work

Sequence of hTau-441 fibrils (P10636 1-441 isoform P10636-8): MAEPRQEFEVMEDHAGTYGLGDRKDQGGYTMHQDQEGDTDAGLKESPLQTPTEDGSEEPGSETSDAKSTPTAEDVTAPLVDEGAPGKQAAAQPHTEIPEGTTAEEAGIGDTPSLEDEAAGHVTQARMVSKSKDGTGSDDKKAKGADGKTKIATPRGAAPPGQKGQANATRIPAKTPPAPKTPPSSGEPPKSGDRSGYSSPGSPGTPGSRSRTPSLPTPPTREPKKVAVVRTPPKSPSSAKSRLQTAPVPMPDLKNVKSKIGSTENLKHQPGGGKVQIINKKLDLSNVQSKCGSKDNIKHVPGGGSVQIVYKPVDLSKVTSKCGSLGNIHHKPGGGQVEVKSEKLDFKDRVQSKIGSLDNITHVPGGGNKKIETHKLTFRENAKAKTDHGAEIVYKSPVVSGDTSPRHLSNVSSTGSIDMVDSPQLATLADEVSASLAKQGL

SMILES: Cc1c(OCC(F)(F)[18F])ccnc1C[S+]([O-])c1nc2ccccc2[nH]1 (centres unmarked) [[^18F]1, [^18F]lansoprazole]
- pKa (N–H-acidity) [1]: ~4
- whole brain activity at 2 min p.i. ([2]; 2 min p.i.): less than 1.0 % i.D.
- whole brain activity after 90 min ([2]; after 90 min): below 0.5%
- peak uptake, whole brain [2]: 2.5–3.5 % i.D.

SMILES: [18F]c1ccc(-c2ccc3c(c2)[nH]c2ccncc23)cn1 [[^18F]T807]
- affinity to monoamino oxidase A (monoamino oxidase A): high affinity

SMILES: CNc1ccc(-c2ccc3cc(OC[C@H](O)C[18F])ccc3n2)cn1 [[^18F]THK-5351]
- affinity for monoamino oxidase B (monoamino oxidase B): high affinity

The remaining lines, values ahead:

- htau fibril binding result (hTau-441 fibrils): very high affinity
SMILES: Cc1c(OCCF)ccnc1C[S+]([O-])c1nc2ccccc2n1C (centres unmarked) [11t, 2-(((4-(2-Fluoroethoxy)-3-methylpyridin-2-yl)methyl)sulfinyl)-1-methyl-1H-benzoimidazole]

- radioactivity concentration in brain at 10 min ([2]; 10 min): about 3.0 % of the injected dose
- radioactivity concentration in brain at 27 min ([2]; 27 min): ~2.0 % of the injected dose
- radioactivity concentration in brain at 90 min ([2]; 90 min): ~1.3 % of the injected dose
- peak uptake, whole brain [2]: 5.0–6.0 % i.D.
SMILES: Cc1c(OCC(F)(F)[18F])ccnc1C[S+]([O-])c1nc2ccccc2n1C (centres unmarked) [[^18F]2]
